Values of other authors in patent publication US20190046547A1, “COMPOSITIONS AND METHODS FOR TREATING CHRONIC WOUNDS” (Hackensack University Medical Center, priority 2016, published 2019).

Tested on: infected pneumonectomy cavity
Settings: single case

Compound: OC[C@H]1O[C@@](CO)(O[C@H]2O[C@H](CO)[C@@H](O)[C@H](O)[C@H]2O)[C@@H](O)[C@@H]1O [granulated sugar]
- adverse events: severe hyponatremia and acute renal failure
